Like-named read-outs stand apart in the source and are kept apart here.
Key:
[1] = system: intact cells of N. gonorrhoeae; type: cell-based, N. gonorrhoeae ATCC 19424; conditions: urine, room temperature; for average amplification MOTA values at day 0 versus day 6: 100 mM sodium citrate, sodium fluoride, sodium borate, 5 mM EDTA
Method: (§1) The samples were spiked with cells of N. gonorrhoeae a final concentration 2500 cells/ml. Each sample was incubated for 14 days at room temperature. At specific time points (day 0, 6, and 14), 2.0-ml volumes of each sample (eight replicates) was centrifuged at 2000×g for 30 minutes at room temperature. The supernate was decanted and the cell pellet was resuspended with a 2.0-ml volume of BSA/PBS, and then centrifuged at 2000×g for 30 minutes at room temperature. Again, the supernatant was decanted and the cell pellet was resuspended with a 2.0-ml volume of CT/GC diluent. […] SDA was performed on the cell lysate as described in Example 1.
Forty-milliliter volumes of negative urine was prepared with 100 mM sodium citrate (final concentration); 5, 10, and 15% (v/v) sucrose (final concentration); 5, 10, and 15% (v/v) PVP (final concentration); 5, 10, and 15 mM magnesium chloride (final concentration); 10 and 100 mM sodium fluoride (final concentration); 10 and 100 mM sodium formate (final concentration); 10 and 100 mM sodium borate (final concentration); 0.5 and 5 mM EDTA (final concentration); 0.5 and 5 mM EGTA (final concentration); and without chemical additive. The samples were spiked with cells of N. gonorrhoeae at a final concentration of 2500 cells/ml. Each sample was incubated for 6 days at room temperature. At specific time points (day 0 and 6), the samples were processed by centrifugation at 2000×g as described in Example 2. […] SDA was performed on the cell lysate as described in Example 1.

[2] = system: intact cells of N. gonorrhoeae; type: cell-based, N. gonorrhoeae ATCC 19424; conditions: for average MOTA values for day 0 versus day 6: 100 mM sodium citrate, sodium fluoride, sodium borate, 5 mM EDTA, urine at 5, 25, 35, and 45° C.; for Average MOTA Value: 100 mM, urine
Method: as §1
The samples were spiked with cells of N. gonorrhoeae at a final concentration of 2500 cells/ml. Each sample was incubated for 6 days at 5, 25, 35, and 45° C. At specific time points (day 0 and 6), the samples were processed by centrifugation at 2000×g as described in Example 2. […] SDA was performed on the cell lysates as described in Example 1.

[3] = system: N. gonorrhoeae plasmid DNA; assay: Stability of N. gonorrhoeae plasmid DNA in urine, 3 days at room temperature (SDA, MOTA value); type: biochemical, Neisseria gonorrhoeae; conditions: 100 mM
Method: The samples were incubated for 3 days at room temperature. […] SDA was performed on the isolated DNA as described in Example 1.

O=C(O)CN(CCOCCOCCN(CC(=O)O)CC(=O)O)CC(=O)O [EGTA, Ethylenebis(oxyethylenenitrilo) tetraacetic acid]
Average MOTA Value ([1]; 0.5 mM, Day 0): 32611
Average MOTA Value ([1]; 0.5 mM, Day 6): 1150
Average MOTA Value ([1]; 5 mM, Day 0): 34504
Average MOTA Value ([1]; 5 mM, Day 6): 6931

O.O.O.O.O.O.O.O.O.O.[Na+].[Na+].[O-]B1OB2OB([O-])OB(O1)O2 [sodium borate, Sodium borate]
Average MOTA Value ([1]; 10 mM, Day 0): 26170
Average MOTA Value ([1]; 10 mM, Day 6): 15464
average amplification MOTA values at day 0 versus day 6 [1]: not significantly different
Average MOTA Value ([1]; 100 mM, Day 0): 24607
Average MOTA Value ([1]; 100 mM, Day 6): 28908
average MOTA values for day 0 versus day 6 [2]: no significant difference
Average MOTA Value ([2]; 5° C., Day 0): 41940
Average MOTA Value ([2]; 5° C., Day 6): 40325
Average MOTA Value ([2]; 25° C., Day 0): 49622
Average MOTA Value ([2]; 25° C., Day 6): 50745
Average MOTA Value ([2]; 35° C., Day 0): 60308
Average MOTA Value ([2]; 35° C., Day 6): 60296
Average MOTA Value ([2]; 45° C., Day 0): 63343
Average MOTA Value ([2]; 45° C., Day 6): 62283
Average MOTA Value ([3]; Day 0): 23263
Average MOTA Value ([3]; Day 3): 34089

O=C[O-].[Na+] [sodium formate, Sodium formate]
Average MOTA Value ([1]; 10 mM, Day 0): 34446
Average MOTA Value ([1]; 10 mM, Day 6): 2211
Average MOTA Value ([1]; 100 mM, Day 0): 29357
Average MOTA Value ([1]; 100 mM, Day 6): 2139

OC[C@H]1O[C@@](CO)(O[C@H]2O[C@H](CO)[C@@H](O)[C@H](O)[C@H]2O)[C@@H](O)[C@@H]1O [sucrose, Sucrose]
Average MOTA Value ([1]; 5% (v/v), Day 0): 28427
Average MOTA Value ([1]; 5% (v/v), Day 6): 501
Average MOTA Value ([1]; 10% (v/v), Day 0): 29548
Average MOTA Value ([1]; 10% (v/v), Day 6): 5555
Average MOTA Value ([1]; 15% (v/v), Day 0): 27391
Average MOTA Value ([1]; 15% (v/v), Day 6): 8497

[Cl-].[Cl-].[Mg+2] [MgCl^2, Magnesium chloride]
Average MOTA Value ([1]; 5 mM, Day 0): 28072
Average MOTA Value ([1]; 5 mM, Day 6): 1507
Average MOTA Value ([1]; 10 mM, Day 0): 27157
Average MOTA Value ([1]; 10 mM, Day 6): 4547
Average MOTA Value ([1]; 15 mM, Day 0): 35926
Average MOTA Value ([1]; 15 mM, Day 6): 4868

[F-].[Na+] [sodium fluoride, Sodium fluoride]
Average MOTA Value ([1]; 10 mM, Day 0): 32162
Average MOTA Value ([1]; 10 mM, Day 6): 10894
average amplification MOTA values at day 0 versus day 6 [1]: not significantly different
Average MOTA Value ([1]; 100 mM, Day 0): 26385
Average MOTA Value ([1]; 100 mM, Day 6): 24559
average MOTA values for day 0 versus day 6 [2]: no significant difference
Average MOTA Value ([2]; 5° C., Day 0): 43807
Average MOTA Value ([2]; 5° C., Day 6): 59543
Average MOTA Value ([2]; 25° C., Day 0): 44945
Average MOTA Value ([2]; 25° C., Day 6): 47391
Average MOTA Value ([2]; 35° C., Day 0): 41608
Average MOTA Value ([2]; 35° C., Day 6): 47347
Average MOTA Value ([2]; 45° C., Day 0): 45741
Average MOTA Value ([2]; 45° C., Day 6): 48043
Average MOTA Value ([3]; Day 0): 27811
Average MOTA Value ([3]; Day 3): 42689

Source: US7029840B2 (priority 2000, dated 2006)
